Data published in ChEMBL document CHEMBL4038324, “Amidoalkylindoles as Potent and Selective Cannabinoid Type 2 Receptor Agonists with in Vivo Efficacy in a Mouse Model of Multiple Sclerosis” (J Med Chem, 2017).

Assays:
Cannabinoid receptor 1 [1] = molecular target: T1, Cannabinoid receptor 1 (Homo sapiens, UniProt P21554); assay: Agonist activity at human CB1 receptor expressed in CHO cells assessed as induction of Ca2+ flux at 10 uM after 10 mins by Fluor-4 AM dye based assay; assay type: cell-based
Cannabinoid receptor 2 [2] = molecular target: T2, Cannabinoid receptor 2 (Homo sapiens, UniProt P34972); assay: Agonist activity at human CB2 receptor expressed in CHO cells assessed as induction of Ca2+ flux after 10 mins by Fluor-4 AM dye based assay; assay type: functional, cell-based
Cannabinoid receptor 2 [3] = molecular target: T2, Cannabinoid receptor 2; assay: Agonist activity at human CB2 receptor expressed in CHO cells assessed as induction of Ca2+ flux after 10 mins by Fluor-4 AM dye based assay relative to CP55940; assay type: functional, cell-based
[4] = molecular target: T3, Cannabinoid receptor 1 (CB1) (Homo sapiens, UniProt P21554); assay: Antagonist activity at human CB1 receptor expressed in CHO cells assessed as inhibition of CP55940-induced Ca2+ flux at 10 uM preincubated for 10 mins followed by agonist addition by Fluor-4 AM dye based assay; assay type: cell-based; conditions: CHO cells expressing human CB1 receptor
Cannabinoid receptor 2 [5] = molecular target: T2, Cannabinoid receptor 2; assay: Antagonist activity at human CB2 receptor expressed in CHO cells assessed as inhibition of CP55940-induced Ca2+ flux at 10 uM preincubated for 10 mins followed by agonist addition by Fluor-4 AM dye based assay; assay type: functional, cell-based
Cannabinoid receptor 1 [6] = molecular target: T1, Cannabinoid receptor 1; assay: Agonist activity at human CB1 receptor expressed in CHO cells assessed as induction of Ca2+ flux after 10 mins by Fluor-4 AM dye based assay; assay type: cell-based
[7] = molecular target: T3, Cannabinoid receptor 1 (CB1); assay: Agonist activity at human CB1 receptor expressed in CHO cells assessed as induction of Ca2+ flux after 10 mins by Fluor-4 AM dye based assay relative to CP55940; assay type: cell-based; conditions: CHO cells expressing human CB1 receptor
Cannabinoid receptor 2 [8] = molecular target: T2, Cannabinoid receptor 2; assay: Agonist activity at human CB2 receptor expressed in CHO cells assessed as induction of Ca2+ flux at 10 uM after 10 mins by Fluor-4 AM dye based assay; assay type: functional, cell-based

T2 sequence (P34972 whole entry): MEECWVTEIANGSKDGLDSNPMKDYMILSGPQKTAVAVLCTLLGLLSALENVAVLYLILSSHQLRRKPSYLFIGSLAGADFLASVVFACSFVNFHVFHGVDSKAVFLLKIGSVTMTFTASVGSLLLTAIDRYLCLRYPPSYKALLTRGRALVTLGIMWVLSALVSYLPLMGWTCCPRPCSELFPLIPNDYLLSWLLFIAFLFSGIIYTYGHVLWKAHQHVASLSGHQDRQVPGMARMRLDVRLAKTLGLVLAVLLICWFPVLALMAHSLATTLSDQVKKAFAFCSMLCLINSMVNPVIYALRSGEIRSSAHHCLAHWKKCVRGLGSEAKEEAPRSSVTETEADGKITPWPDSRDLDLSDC
T1 sequence (P21554 whole entry): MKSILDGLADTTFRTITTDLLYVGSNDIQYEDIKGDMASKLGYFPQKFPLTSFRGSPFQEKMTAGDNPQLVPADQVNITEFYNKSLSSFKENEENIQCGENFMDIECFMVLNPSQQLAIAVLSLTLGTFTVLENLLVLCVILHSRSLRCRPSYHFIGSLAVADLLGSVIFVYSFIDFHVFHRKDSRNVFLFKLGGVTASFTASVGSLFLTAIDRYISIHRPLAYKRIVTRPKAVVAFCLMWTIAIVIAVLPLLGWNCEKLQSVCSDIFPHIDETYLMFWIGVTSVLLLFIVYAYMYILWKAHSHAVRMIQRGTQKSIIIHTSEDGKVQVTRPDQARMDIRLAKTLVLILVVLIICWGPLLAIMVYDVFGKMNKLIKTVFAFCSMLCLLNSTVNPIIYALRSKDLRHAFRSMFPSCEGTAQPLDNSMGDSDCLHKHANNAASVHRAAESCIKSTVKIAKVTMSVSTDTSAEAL
T3 sequence (P21554 whole entry): as above

Compound	Activity (Cannabinoid receptor 1 [1])	EC50 (Cannabinoid receptor 2 [2])	Emax (Cannabinoid receptor 2 [3])	inhibition at 10 min, 10 µM [4]	inhibition (Cannabinoid receptor 2 [5])	EC50 (Cannabinoid receptor 1 [6])	Emax at 10 min [7]	Activity (Cannabinoid receptor 2 [8])
O=C(O)CCCCn1c(C(=O)NC23CC4CC(CC(C4)C2)C3)cc2ccccc21	< 50%	7130 nM	43.3%	< 50%	< 50%			
N#CCCCn1cc(C(=O)NC23CC4CC(CC(C4)C2)C3)c2ccccc21		31 nM	70%	< 50%	< 50%	0.63 µM	105%	
O=C(NC12CC3CC(CC(C3)C1)C2)c1cc2ccccc2n1CCCO	< 50%	160 nM	86.7%	< 50%	< 50%			
O=C(NC1CCCCC1)c1cc2ccccc2n1CCCCCO	< 50%	420 nM	50%	< 50%	< 50%			
CCCCCn1c(C(=O)NC23CC4CC(CC(C4)C2)C3)cc2ccccc21	< 50%	720 nM	53.3%	< 50%	< 50%			
N#CCCCCn1c(C(=O)NC23CC4CC(CC(C4)C2)C3)cc2ccccc21	< 50%	75 nM	41.7%	< 50%	< 50%			
NCCCCCn1c(C(=O)NC23CC4CC(CC(C4)C2)C3)cc2ccccc21	< 50%	8600 nM	93.3%	< 50%	< 50%			
O=C(NC12CC3CC(CC(C3)C1)C2)c1cc2ccccc2n1CCCC(F)(F)F	< 50%	490 nM	63.3%	< 50%	< 50%			
COc1cccc2c1c(C(=O)NC13CC4CC(CC(C4)C1)C3)cn2CCN1CCOCC1	< 50%			< 50%	< 50%			< 50%
NCCCCn1c(C(=O)NC23CC4CC(CC(C4)C2)C3)cc2ccccc21	< 50%	4700 nM	86.7%	< 50%	< 50%			
C[S+]([O-])c1cccc2c(C(=O)NC34CC5CC(CC(C5)C3)C4)cn(CCN3CCOCC3)c12 (configuration not stated)	< 50%			< 50%	< 50%			< 50%
O=C(NC12CC3CC(CC(C3)C1)C2)c1cc2ccccc2n1CC1CCOCC1	< 50%	410 nM	41.7%	< 50%	< 50%			
O=C(NC12CC3CC(CC(C3)C1)C2)c1c[nH]c2ccccc12	< 50%	630 nM	75%	< 50%	< 50%			
COc1ccc2c(c1)c(C(=O)NC13CC4CC(CC(C4)C1)C3)cn2CCN1CCOCC1	< 50%			< 50%	< 50%			< 50%
O=C(NC12CC3CC(CC(C3)C1)C2)c1cn(CCCCO)c2ccccc12		160 nM	68.3%	< 50%	< 50%	13 µM	58.3%	
CC(C)(C)NC(=O)c1cc2ccccc2n1CCCCCO	< 50%	430 nM	51.7%	< 50%	< 50%			
N#CCCn1c(C(=O)NC23CC4CC(CC(C4)C2)C3)cc2ccccc21	< 50%	150 nM	93.3%	< 50%	< 50%			

Compound	Activity (Cannabinoid receptor 1 [1])	EC50 (Cannabinoid receptor 2 [2])	Emax (Cannabinoid receptor 2 [3])	inhibition at 10 min, 10 µM [4]	inhibition (Cannabinoid receptor 2 [5])	EC50 (Cannabinoid receptor 1 [6])	Emax at 10 min [7]	Activity (Cannabinoid receptor 2 [8])
O=CCCCCn1c(C(=O)NC23CC4CC(CC(C4)C2)C3)cc2ccccc21	< 50%	180 nM	73.3%	< 50%	< 50%			
N=C(N)NCCCCCn1c(C(=O)NC23CC4CC(CC(C4)C2)C3)cc2ccccc21	< 50%			< 50%	< 50%			< 50%
O=C(NC12CC3CC(CC(C3)C1)C2)c1c(F)c2ccccc2n1CCCCCO	< 50%	610 nM	60%	< 50%	< 50%			
O=C(NC12CC3CC(CC(C3)C1)C2)c1cc2ccccc2n1CCCCC(F)F	< 50%	92 nM	60%	< 50%	< 50%			
O=C(NC12CC3CC(CC(C3)C1)C2)c1cc2ccccc2[nH]1	< 50%	980 nM	66.7%	< 50%	< 50%			
N#CCCCn1c(C(=O)NC23CC4CC(CC(C4)C2)C3)cc2ccccc21	< 50%	270 nM	61.7%	< 50%	< 50%			
O=C(NC12CC3CC(CC(C3)C1)C2)c1c(F)c2ccccc2n1CCCCO	< 50%	410 nM	46.7%	< 50%	< 50%			
O=C(NC12CC3CC(CC(C3)C1)C2)c1cc2ccccc2n1CCCCCO	< 50%	100 nM	70%	< 50%	< 50%			
N#CCCCCn1c(C(=O)Nc2ccccc2)cc2ccccc21	< 50%	200 nM	48.3%	< 50%	< 50%			
O=C(NC12CC3CC(CC(C3)C1)C2)c1cc2ccccc2n1CCCCCF	< 50%	140 nM	53.3%	< 50%	< 50%			
O=C(NC1CCCC1)c1cc2ccccc2n1CCCCCO	< 50%			< 50%	< 50%			< 50%
O=C(NC12CC3CC(CC(C3)C1)C2)c1[nH]c2ccccc2c1F	< 50%	3800 nM	83.3%	< 50%	< 50%			
COCCCCCn1cc(C(=O)NC23CC4CC(CC(C4)C2)C3)c2ccccc21	< 50%	82 nM	70%	< 50%	< 50%			
N#CCn1cc(C(=O)NC23CC4CC(CC(C4)C2)C3)c2ccccc21	< 50%	410 nM	66.3%	< 50%	< 50%			
Cc1cccc2c(C(=O)NC34CC5CC(CC(C5)C3)C4)c[nH]c12	< 50%	500 nM	60%	< 50%	< 50%			
O=C(NC12CC3CC(CC(C3)C1)C2)c1cc2ccccc2n1CCN1CCOC1=O	< 50%	220 nM	66.7%	< 50%	< 50%			
N#CCCn1cc(C(=O)NC23CC4CC(CC(C4)C2)C3)c2ccccc21	< 50%	180 nM	73.3%	< 50%	< 50%			
